Measurements: US20070259844A1, “Antiviral Compositions And Methods Of Using The Same” (VGX PHARMACEUTICALS, priority 2003, published 2007)

Tests used:
[1] = test system: HCV RNA-replicating cell line AVA5; assay: Primary in vitro anti-HCV screen, intracellular HCV RNA levels in AVA5 cells; format: cell-based
Protocol: (§1) The antiviral activity of test compounds are assayed in the stably HCV RNA-replicating cell line, AVA5, derived by transfection of the human hepatoblastoma cell line, Huh7 (Blight, et al., 2000, Sci. 290:1972). Compounds are added to dividing cultures once daily for three days (media is changed with each addition of compound). Cultures generally start the assay at 50% confluence and reach confluence during the last day of treatment. Intracellular HCV RNA levels and cytotoxicity are assessed 24 hours after the last dose of compound.
(§2) Assays are conducted using a single dose of test compound. Replicate cultures for HCV RNA levels (on 48-well plates) and triplicate cultures for cytoxicity (on 96-well plates) are used.
Intracellular HCV RNA levels are measured using standard blot hybridization (Korba & Gerin, 1992, Antivir. Res. 19:55) using triplicate cultures. HCV RNA levels in the treated cultures are expressed as a percentage of the mean levels of RNA detected in untreated cultures. Levels of β-actin RNA are used to normalize HCV RNA levels in each sample.

[2] = test system: AVA5 cells (derived from human hepatoblastoma cell line Huh7); assay: Cytotoxicity in the anti-HCV screen (AVA5 cultures); format: cell-based; details: 10 IU/ml
Protocol: as §1, §2

[3] = target: T1, human glucocorticoid receptor (Homo sapiens, UniProt P04150); details: cited from earlier work
T1 sequence (P04150 1-777): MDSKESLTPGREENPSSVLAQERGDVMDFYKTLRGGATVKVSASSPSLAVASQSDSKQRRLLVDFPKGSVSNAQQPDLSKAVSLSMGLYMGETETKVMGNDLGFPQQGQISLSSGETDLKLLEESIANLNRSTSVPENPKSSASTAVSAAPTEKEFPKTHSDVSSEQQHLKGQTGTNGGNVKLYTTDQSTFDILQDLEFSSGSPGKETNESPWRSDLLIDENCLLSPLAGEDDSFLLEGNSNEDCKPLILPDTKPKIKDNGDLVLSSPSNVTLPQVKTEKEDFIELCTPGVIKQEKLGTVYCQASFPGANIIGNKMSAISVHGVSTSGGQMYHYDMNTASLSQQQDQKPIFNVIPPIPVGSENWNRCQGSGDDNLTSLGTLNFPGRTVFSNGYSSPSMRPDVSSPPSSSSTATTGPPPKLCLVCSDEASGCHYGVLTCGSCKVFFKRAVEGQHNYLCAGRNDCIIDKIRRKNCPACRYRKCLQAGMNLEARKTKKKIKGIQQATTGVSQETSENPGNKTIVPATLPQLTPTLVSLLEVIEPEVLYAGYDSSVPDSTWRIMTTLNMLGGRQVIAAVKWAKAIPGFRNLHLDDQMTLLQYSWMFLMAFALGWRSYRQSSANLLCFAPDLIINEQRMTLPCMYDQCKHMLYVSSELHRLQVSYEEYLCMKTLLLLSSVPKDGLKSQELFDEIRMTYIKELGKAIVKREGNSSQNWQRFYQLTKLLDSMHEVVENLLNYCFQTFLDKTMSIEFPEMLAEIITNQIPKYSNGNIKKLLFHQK

[4] = Cytotoxicity in the anti-HCV screen (AVA5 cultures); format: cell-based, human; details: human, AVA5 cells (stably HCV RNA-replicating, derived from Huh7); toxicity control, AVA5 cells, once daily for three days; read-out: approximate CC90
Protocol: as §1, §2

α-interferon
approximate EC90 ([1]; positive antiviral control, AVA5 cells, once daily for three days): ~10 IU/ml | cytotoxicity at the EC90 [2]: no cytotoxicity

C[C@]12CCC(=O)C=C1CC[C@@H]1[C@@H]2[C@@H](O)C[C@@]2(C)[C@H]1CC[C@]2(O)C(=O)CO [cortisol, reference compound]
relative binding affinity to the human glucocorticoid receptor [3]: 23%

NC(=O)c1ncn([C@@H]2O[C@H](CO)[C@@H](O)[C@H]2O)n1 [ribavirin, reference compound]
antiviral activity at the CC90 ([1]; 100 μM): no antiviral activity | CC90 at 3 days [4]: ~100 µM
